Results: patent US7605168B2 (Plexxikon, Inc., priority 2004, dated 2009)
pIC50: −log10 of the molar value.

Legend:
[1] = molecular target: T1, PDE4B: catalytic domain of human PDE4B from S152-S528 (Homo sapiens, UniProt Q07343); assay: PDE4 IC50 determination by Scintillation Proximity Assay (SPA), PDE4B catalytic domain; assay type: biochemical; details: [3H]cAMP SPA, 30 min at 30° C.
T1 construct: The catalytic domain of human PDE4B from S152-S528; His6 (N, cleaved yes); thrombin cleavage site (N, cleaved yes); made in house; host or cells: E. coli BL21 (DE3) RIL
Method in brief: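 Human PDE4B catalytic domain (80 ng/ml) hydrolysed [3H]cAMP in 50 mM Tris pH 7.5, 8.3 mM MgCl, 1.7 mM EGTA, 0.01% BSA for 30 min at 30 °C. Reaction was stopped with yttrium silicate SPA beads in 18 mM ZnSO4, and bound [3H]AMP was counted by scintillation. IC50 came from non-linear regression.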

[2] = molecular target: T2, PDE4D5: full-length human PDE4D5 isozyme (Homo sapiens, UniProt Q08499); assay: PDE4 IC50 determination by Scintillation Proximity Assay (SPA), full-length PDE4D5; assay type: biochemical; details: cell lysate, [3H]cAMP SPA
T2 construct: made in house; host or cells: baculovirus infected insect cells (pFastBacHT)
Method in brief: (§1)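 Unpurified enzyme from cell lysates (PDE4B2 2.5 μl, PDE4D5 0.083 μl of 50% glycerol stock/ml) hydrolysing [3H]cAMP in 50 mM Tris pH 7.5, 8.3 mM MgCl, 1.7 mM EGTA, 0.01% BSA, 30 min at 30 °C. Stopped with yttrium silicate SPA beads in 18 mM ZnSO4; bead-bound [3H]AMP counted. IC50 by non-linear regression.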

[3] = molecular target: T3, PDE4B2: full-length human PDE4B2 isozyme (Homo sapiens, UniProt Q07343); assay: PDE4 IC50 determination by Scintillation Proximity Assay (SPA), full-length PDE4B2; assay type: biochemical; details: cell lysate, [3H]cAMP SPA
T3 construct: made in house; host or cells: baculovirus infected insect cells (pFastBacHT)
Method in brief: as §1

[4] = test system: TNF-α release from whole blood cultures stimulated with LPS; assay: IC50 by TNF alpha production upon stimulation of whole blood cultures with LPS; assay type: cell-based; details: human whole blood (buffy coat) culture, 100 ng/ml LPS, 4 hours; read-out: h TNFα IC50
Protocol: Compounds were assayed to generate IC50 numbers based on the inhibition of TNF-α release from whole blood cultures, using the following assay protocol (see Table 5 for compounds tested and results). Inhibition of PDE4B results in the inhibition of TNF-α release by whole blood cultures stimulated with lipopolysaccharide (LPS). The measurement of TNF-α release was used to assess compounds as PDE4B inhibitors.
Compounds were provided in DMSO at 20 mM and 2 μl per well was added to one row of a dilution plate. Added 98 μl of RPMI 1640 media with 2.5% heat inactivated FBS to each well containing compound. The same media with 2% DMSO was prepared and 60 μl was added to each of the empty wells in the dilution plate. The compound was serially diluted 1:3 (30 μl to 60 μl of media) for a total of 8 concentrations per compound. Wells were also prepared with 50 μM roflumilast and piclamilast as 100% inhibition controls, and 2% DMSO in media was used as 0% inhibition control. A 20 μl aliquot of each sample was transferred to an assay plate in duplicate.
Human buffy coat was obtained from the Stanford Medical School Blood Center and diluted with 7 volumes of RPMI 1640 media with 1% penicillin/streptomycin and 2.5% heat inactivated FBS. A 160 μl aliquot of the diluted blood was added to each well of the assay plates, mixed and incubated for 1 hour at 37° C. in 5% CO2. LPS (Sigma catalog number L2637) that had been diluted to 1 mg/ml in PBS and stored as 20 μl aliquots at −20° C. was thawed and diluted 1000× to 1 μg/ml. A 20 μl aliquot of this was added to each sample (final concentration 100 ng/ml LPS) after the 1 hour incubation. A background sample was prepared without addition of LPS as well. The samples were mixed on a shaker for one minute at 900 RPM and incubated for 4 hours at 37° C. in 5% CO2. The plates were then put on a shaker for one minute at 900 RPM, followed by centrifuging at 100×g for 10 minutes, deceleration setting of 5. The top 75 μl of supernatant was carefully pipetted to a new plate and frozen at −20° C.
A 50 μl aliquot of incubation buffer (Biosource International Immunoassay Kit:Human TNF-α catalog number KHC3011) was added to each well of a plate coated with monoclonal antibody specific for hTNF-α (Biosource kit). The supernatant blood samples were thawed and a 50 μl aliquot along with 50 μl of diluent buffer (Biosource kit) were added to incubation buffer and the samples were incubated for 2 hours at room temperature. The samples were washed 4 times with 300 μl/well wash buffer (Biosource kit). A 100 μl aliquot of biotinylated anti-TNFalpha (Biosource kit) was added and the samples incubated for 1 hour at room temperature. The samples were washed 4 times with 300 μl/well wash buffer. A 100 μl aliquot of Streptavidin-HRP solution (BioSource kit) was added and the samples incubated for 30 minutes at room temperature. The samples were washed 4 times with 300 μl/well wash buffer. A 100 μl aliquot of Chromagen (Biosource kit) was added and the samples incubated in the dark for 30 minutes. A 100 μl aliquot of stop solution (2N H2SO4) was added to each sample and samples were read at 450 nm on a WallacVictor for 0.1 sec/well.

T2 sequence (Q08499 with tags, fused parts or gaps isoform Q08499-6): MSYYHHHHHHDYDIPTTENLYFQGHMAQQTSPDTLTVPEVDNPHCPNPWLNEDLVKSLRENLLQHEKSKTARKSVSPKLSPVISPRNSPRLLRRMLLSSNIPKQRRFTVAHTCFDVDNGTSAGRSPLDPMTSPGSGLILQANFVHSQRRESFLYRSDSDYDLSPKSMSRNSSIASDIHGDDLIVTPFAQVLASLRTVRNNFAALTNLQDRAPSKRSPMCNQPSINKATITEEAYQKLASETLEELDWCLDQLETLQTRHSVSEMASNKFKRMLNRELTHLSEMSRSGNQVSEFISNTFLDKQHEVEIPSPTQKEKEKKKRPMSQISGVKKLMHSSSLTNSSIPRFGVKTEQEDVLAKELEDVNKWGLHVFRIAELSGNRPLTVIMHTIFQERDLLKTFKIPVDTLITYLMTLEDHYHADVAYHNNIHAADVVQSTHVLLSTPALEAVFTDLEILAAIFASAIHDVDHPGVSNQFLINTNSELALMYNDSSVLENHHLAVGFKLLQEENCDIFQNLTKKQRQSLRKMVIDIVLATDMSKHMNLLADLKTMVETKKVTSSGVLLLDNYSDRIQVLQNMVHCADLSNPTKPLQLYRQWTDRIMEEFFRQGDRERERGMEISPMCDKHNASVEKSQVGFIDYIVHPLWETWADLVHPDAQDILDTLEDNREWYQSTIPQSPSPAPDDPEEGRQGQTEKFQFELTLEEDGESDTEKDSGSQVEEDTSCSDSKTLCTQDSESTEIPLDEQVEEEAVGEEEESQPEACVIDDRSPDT
T1 sequence (Q07343 324-700): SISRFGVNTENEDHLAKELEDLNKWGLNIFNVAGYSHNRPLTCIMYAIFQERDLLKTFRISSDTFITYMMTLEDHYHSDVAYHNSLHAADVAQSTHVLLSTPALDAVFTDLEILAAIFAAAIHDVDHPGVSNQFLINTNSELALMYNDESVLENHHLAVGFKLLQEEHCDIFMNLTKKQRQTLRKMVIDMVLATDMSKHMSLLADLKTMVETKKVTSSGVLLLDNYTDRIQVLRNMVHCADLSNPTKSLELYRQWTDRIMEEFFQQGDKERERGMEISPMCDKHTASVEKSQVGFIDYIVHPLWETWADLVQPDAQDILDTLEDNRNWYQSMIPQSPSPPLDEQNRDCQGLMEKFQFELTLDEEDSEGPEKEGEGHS
T3 sequence (Q07343 with tags, fused parts or gaps isoform Q07343-2): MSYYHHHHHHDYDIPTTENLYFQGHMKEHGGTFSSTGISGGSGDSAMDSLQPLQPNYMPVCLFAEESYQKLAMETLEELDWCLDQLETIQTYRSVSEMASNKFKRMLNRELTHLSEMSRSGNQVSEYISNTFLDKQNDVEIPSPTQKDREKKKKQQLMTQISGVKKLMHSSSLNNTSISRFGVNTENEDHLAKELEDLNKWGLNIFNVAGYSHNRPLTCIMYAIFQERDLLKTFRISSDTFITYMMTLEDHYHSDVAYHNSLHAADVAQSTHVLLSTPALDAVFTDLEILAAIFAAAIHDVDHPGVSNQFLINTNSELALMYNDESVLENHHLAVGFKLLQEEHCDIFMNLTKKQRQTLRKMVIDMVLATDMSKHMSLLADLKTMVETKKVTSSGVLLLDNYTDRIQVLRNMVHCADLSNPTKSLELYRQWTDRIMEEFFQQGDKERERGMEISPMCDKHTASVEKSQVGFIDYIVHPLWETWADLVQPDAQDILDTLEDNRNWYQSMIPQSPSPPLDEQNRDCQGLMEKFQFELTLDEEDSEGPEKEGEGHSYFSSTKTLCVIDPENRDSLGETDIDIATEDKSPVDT

Row | Compound | pIC50 [1] | pIC50 [2] | pIC50 [3] | pIC50 [4]
1 | COc1ccc(-c2cn(C(=O)c3ccccc3OC)c3ncccc23)cc1OC [Compound 68, [3-(3,4-Dimethoxy-phenyl)-pyrrolo[2,3-b]pyridin-1-yl]-(2-methoxyphenyl)-methanone] | > 5.00 | > 5.00 | > 5.00 | ≥ 5.00
2 | COc1ccc(-c2cn(S(=O)(=O)c3ccc(-c4cnco4)cc3)c3ncccc23)cc1OC [Compound 70, 3-(3,4-Dimethoxy-phenyl)-1-(4-oxazol-5-yl-benzenesulfonyl)-1H-pyrrolo[2,3-b]pyridine] | > 5.00 | > 5.00 | > 5.00 | ≥ 5.00
3 | COc1ccc(-c2cn(S(=O)(=O)c3cccc(-c4cnco4)c3)c3ncccc23)cc1OC [Compound 72, 3-(3,4-Dimethoxy-phenyl)-1-(3-oxazol-5-yl-benzenesulfonyl)-1H-pyrrolo[2,3-b]pyridine] | > 5.00 | > 5.00 | > 5.00 | ≥ 5.00
4 | COc1ccc(-c2cn(S(=O)(=O)c3ccc(-c4nnc(C)o4)cc3)c3ncccc23)cc1OC [Compound 73, 3-(3,4-Dimethoxy-phenyl)-1-[4-(5-methyl-[1,3,4]oxadiazol-2-yl)-benzenesulfonyl]-1H-pyrrolo[2,3-b]pyridine] | > 5.00 | > 5.00 | > 5.00 | ≥ 5.00
5 | COc1ccc(-c2cn(Cc3ccccc3CS(=O)(=O)c3ccccc3)c3ncccc23)cc1OC [Compound 74, 1-(2-Benzenesulfonylmethyl-benzyl)-3-(3,4-dimethoxy-phenyl)-1H-pyrrolo[2,3-b]pyridine] | > 5.00 | > 5.00 | > 5.00 | ≥ 5.00
6 | COc1ccc(-c2cn(Cc3ccccc3)c3ncccc23)cc1OC [Compound 75, 1-Benzyl-3-(3,4-dimethoxy-phenyl)-1H-pyrrolo[2,3-b]pyridine] | > 5.00 | > 5.00 | > 5.00 | ≥ 5.00
7 | COc1ccc(-c2cn(Cc3c(C)ccc4ccccc34)c3ncccc23)cc1OC [Compound 76, 3-(3,4-Dimethoxy-phenyl)-1-(2-methyl-naphthalen-1-ylmethyl)-1H-pyrrolo[2,3-b]pyridine] | > 5.00 | > 5.00 | > 5.00 | ≥ 5.00
8 | COc1ccc(-c2cn(Cc3ccc(C#N)cc3)c3ncccc23)cc1OC [Compound 77, 4-[3-(3,4-Dimethoxy-phenyl)-pyrrolo[2,3-b]pyridin-1-ylmethyl]-benzonitrile] | > 5.00 | > 5.00 | > 5.00 | ≥ 5.00
9 | COc1ccc(-c2cn(Cc3ccccc3-c3ccccc3)c3ncccc23)cc1OC [Compound 78, 1-Biphenyl-2-ylmethyl-3-(3,4-dimethoxy-phenyl)-1H-pyrrolo[2,3-b]pyridine] | > 5.00 | > 5.00 | > 5.00 | ≥ 5.00
10 | COc1ccc(-c2cn(Cc3cccc(C(F)(F)F)c3)c3ncccc23)cc1OC [Compound 79, 3-(3,4-Dimethoxy-phenyl)-1-(3-trifluoromethyl-benzyl)-1H-pyrrolo[2,3-b]pyridine] | > 5.00 | > 5.00 | > 5.00 | ≥ 5.00
11 | CCOc1ccc2ccccc2c1C(=O)n1ccc2cc(-c3ccc(OC)c(OC)c3)cnc21 [Compound 80, [5-(3,4-Dimethoxy-phenyl)-pyrrolo[2,3-b]pyridin-1-yl]-(2-ethoxy-naphthalen-1-yl)-methanone] | > 5.00 | > 5.00 | > 5.00 | < 5.00
12 | COc1ccc(-c2cnc3[nH]ccc3c2)cc1OC [Compound 82, 5-(3,4-Dimethoxy-phenyl)-1H-pyrrolo[2,3-b]pyridine] | > 5.00 | > 5.00 | > 5.00 | ≥ 5.00
13 | COc1ccc(-c2cn(S(=O)(=O)c3csc4ccccc34)c3ncccc23)cc1OC [Compound 91, 1-(Benzo[b]thiophene-3-sulfonyl)-3-(3,4-dimethoxy-phenyl)-1H-pyrrolo[2,3-b]pyridine] | > 5.00 | > 5.00 | > 5.00 | < 5.00
14 | COc1ccc(-c2cn(C(=O)c3ccc(C)c4ccccc34)c3ncccc23)cc1OC [Compound 114, [3-(3,4-Dimethoxy-phenyl)-pyrrolo[2,3-b]pyridin-1-yl]-(4-methyl-naphthalen-1-yl)-methanone] | > 5.00 | > 5.00 | > 5.00 | ≥ 5.00
15 | COc1ccc(-c2cn(C(=O)c3c(-c4ccccc4)cnc4ccccc34)c3ncccc23)cc1OC [Compound 117, [3-(3,4-Dimethoxy-phenyl)-pyrrolo[2,3-b]pyridin-1-yl]-(3-phenyl-quinolin-4-yl)-methanone] | > 5.00 | > 5.00 | > 5.00 | < 5.00
16 | COc1ccc(-c2ccnc3c2ccn3S(=O)(=O)Cc2ccccc2)cc1OC [Compound 127, 4-(3,4-Dimethoxy-phenyl)-1-phenylmethanesulfonyl-1H-pyrrolo[2,3-b]pyridine] | > 5.00 | > 5.00 | > 5.00 | ≥ 5.00
